Tests used:
[1] = system: GAL4 UAS promoter in GAL4UAS responsive luciferase reporter Hela stable cell line; assay: ChIP-qPCR of H3 acetylation or Tau occupancy on the GAL4UAS promoter; type: cell-based
Source text: (A) Chromatin immunoprecipitations-qPCR analysis of H3 acetylation and Tau occupancy on the GAPDH promoter in MCF7shctrl cells in the indicated conditions. MCF7shctrl cells were subjected to cross-linking by 1% formaldehyde. Chromatin fragments were then immunoprecipitated using antibodies (Ab) against acetylated H3 (ac-H3) or Tau and analyzed by quantitative PCR for the presence of the GAPDH promoter. (B) Functional organization of the p21 promoter. (C) ChIP-qPCR analysis of H3 acetylation in MCF7shctrl or shTau cells or (D) Tau occupancy in MCF7shctrl cells on the p21 promoter. (E) ChIP-qPCR analysis of H3 acetylation or Tau occupancy on the stably transfected GAL4UAS responsive luciferase reporter transfected, or not, with Tau4R, then 24 h later treated with 100 nM TSA for 24 h. Cells were then subjected to cross-linking by 1% formaldehyde. Chromatin fragments were then immunoprecipitated using antibodies (Ab) against acetylated H3 or Tau and analyzed by quantitative PCR for the presence of the GAL4 UAS promoter. Quantification of enrichment is represented as fold-enrichment relative to IgG. Data are mean±SD **P<0.01***P<0.001
The ChIP protocol used was previously described (Lefebvre et al., 2006). […]

MCF7shctrl and MCF7shTau = assay: Cell cycle distribution by FACS (propidium iodide and EdU staining); type: cell-based, human; settings: 100 nM TSA, 48 h
Experimental: FIG. 1: Tau inhibition increases MCF7 breast cancer cell line sensitivity to TSA. (A) Tau protein expression in MCF7, MCF7shctrl and shTau were quantify by Elisa. (B) Effect of 100 nM TSA (48 h) on cell death in the MCF7shctrl and MCF7shTau subclones. Cell death was determined by staining and flow cytometric analysis as described in the materials and methods. (C) Effect of 100 nM TSA (48 h) on apoptosis in the MCF7shctrl and MCF7shTau subclones. Apoptosis was determined by flow cytometric analysis of the PI-positive and Annexin-V-positive cells as described in the materials and methods. (D) Cell cycle distribution was determined by FACS analysis of combined propidium iodide and EdU staining in MCF7shctrl and MCF7shTau in the absence or presence 100 nM TSA, 48 h. Data are mean±SD **P<0.01***P<0.001. All results are representative of three independent experiments.
SH-SY5Y human neuroblastoma cells expressing Tau4R tagged with the streptavidin-binding peptide (SBP) (referred as SH-SY5Y-(SBP)Tau4R) (Chauderlier et al., 2018), SH-SY5Y-Tet-on-Tau4R, Hela cells, MCF7 and MDA-MB-231 were cultured in Dulbecco's Modified Eagle's Medium with 10% fetal bovine serum, 2 mM L-glutamine and 50 U/ml penicillin/streptomycin (Gibco) at 37° C. in 5% CO2 humidified air. Transient and stable transfections experiments were performed using the lipofectamine 3000 reagent (Invitrogen). Transient luciferase assays were performed with the dual-luciferase assay system (Promega). For stable clones, luciferase activities were measured using the luciferase assay system (Promega) and normalized against protein concentration. […]
Cell cycle, Cell death and Apoptosis were analyzed with the Click-It Plus EdU Alexa Fluor 647 kit (Thermofisher), Zombie NIR dye (Zombie NIR Fixable Viability Kit—Biolegend) and Annexin V-FITC Apoptosis Detection Kit II (Calbiochem) according to the manufacturer's guideline. Fluorescence was analyzed using a LSR FORTESSA X20 cytometer (Becton Dickinson).

CC(/C=C/C(=O)NO)=C\[C@@H](C)C(=O)c1ccc(N(C)C)cc1 [TSA, 2,4-Heptadienamide, 7-[4-(dimethylamino)phenyl]-N-hydroxy-4,6-dimethyl-7-oxo-, (2E,4E,6R)-]
TSA-induced increase of ac-H3 in the presence of transfected Tau4R ([1]; 100 nM TSA, Tau4R transfected HeLa cells): abrogated
Tau4R enrichment ([1]; TSA-treated condition (100 nM), Tau4R transfected): 16 fold
cells in G1 (MCF7shctrl and MCF7shTau; MCF7shTau): 41.4%
cells in G1 (MCF7shctrl and MCF7shTau; MCF7shctrl): 39.6%
cells in S-phase (MCF7shctrl and MCF7shTau; MCF7shctrl): 19.2%

From US20250134952A1, “METHODS FOR IMPROVING THE EFFICACY OF HDAC INHIBITOR THERAPY AND PREDICTING THE RESPONSE TO TREATMENT WITH HDAC INHIBITOR” (INSTITUT NATIONAL DE LA SANTÉ ET DE LA RECHERCHE MÉDICALE, priority 2021, published 2025)
